Results from BindingDB's records for doi:10.1021/jm00044a013 (Alkermes, 1994).

The compounds below were run against Calpain-1 (Sus scrofa) (assay: In vitro inhibition of porcine erythrocyte calpain 1.).
With `CCNC(=O)C(O)[C@@H](Cc1ccccc1)NC(=O)[C@H](CC(C)C)NC(=O)OCc1ccccc1` (stereo partly drawn) [[(S)-1-((R)-1-Benzyl-2-ethylcarbamoyl-2-hydroxy-ethylcarbamoyl)-3-methyl-butyl]-carbamic acid benzyl ester] the Ki was over 350000 nM.
`CC(C)C[C@H](NC(=O)OCc1ccccc1)C(=O)N[C@H](Cc1ccccc1)C(=O)C(=O)N[C@@H](C)C(=O)O` [(S)-2-[(R)-3-((S)-2-Benzyloxycarbonylamino-4-methyl-pentanoylamino)-2-oxo-4-phenyl-butyrylamino]-propionic acid] showed a Ki of 718 nM.
`COC(=O)[C@H](C)NC(=O)C(=O)[C@@H](Cc1ccccc1)NC(=O)[C@H](CC(C)C)NC(=O)OCc1ccccc1` [(S)-2-[(R)-3-((S)-2-Benzyloxycarbonylamino-4-methyl-pentanoylamino)-2-oxo-4-phenyl-butyrylamino]-propionic acid methyl ester] gave a Ki of 92 nM.
